The source of these data is ChEMBL document CHEMBL5108065 (J Med Chem, 2022).

pIC50, pKd: −log10 of the molar value. Converted amounts (≈) assume the structure as drawn. The source made the active and inactive calls. The calls are words filed in the database; no cut-off is given here.

In series [1] the test system is Plasmodium falciparum. Description: Antimalarial activity against Plasmodium falciparum K1 harbouring Pf-crt, Pf-mdrl,Pf-dhfr, Pf-dhps mutated loci assessed as inhibition of parasite growth pretreated for 48 hrs followed by [3H]-hypoxanthine addition measured after 24 hrs by scintillation counting method. The format is functional, organism-based.
Series [2] concerns Plasmodium falciparum. Description: Antimalarial activity against Plasmodium falciparum TM90C2b harbouring Pf-crt, Pf-mdrl,Pfd-hfr, Pf-cytbQ0 mutated loci assessed as inhibition of parasite growth pretreated for 48 hrs followed by [3H]-hypoxanthine addition measured after 24 hrs by scintillation counting method. The format is functional, organism-based.
The test system of series [3] is Plasmodium falciparum. Briefly: Antimalarial activity against Plasmodium falciparum Dd2048 harbouring pfpi4k mutated loci assessed as inhibition of parasite growth pretreated for 48 hrs followed by [3H]-hypoxanthine addition measured after 24 hrs by scintillation counting method. The format is functional, organism-based.
For series [4], the system named is Plasmodium falciparum. Description: Antimalarial activity against Plasmodium falciparum infected NSG mouse model assessed as accumulation of circulating mature schizonts measured after 2 cycles of drug exposure at 60 mg/kg, po bid administered daily for 3 days. Particulars: time 3.0 day. The format is functional, organism-based.
Series [5] is described as follows: Clearance in Sprague-Dawley rat blood at 1 mg/kg, iv measured at 2 to 72 hrs by LC-MS/MS analysis. The class given is ADME, organism-based. Particulars: whole blood, time 2-72 hrs.
A short description of series [6]: Clearance in Cynomolgus monkey blood at 1 mg/kg, iv measured at 2 to 72 hrs by LC-MS/MS analysis. Particulars: whole blood, time 2-72 hrs. The format is ADME, organism-based, Macaca fascicularis.
Series [7] in a line: Volume of distribution at steady state in Cynomolgus monkey blood at 1 mg/kg, iv measured at 2 to 72 hrs by LC-MS/MS analysis. The format is ADME, organism-based, Macaca fascicularis. Particulars: whole blood, time 2-72 hrs, read-out: Vdss.
Series [8] can be described thus: Terminal half life in Cynomolgus monkey blood at 1 mg/kg, iv measured at 2 to 72 hrs by LC-MS/MS analysis. Particulars: whole blood, time 2-72 hrs, read-out: beta t1/2 (converted). The class given is ADME, organism-based, Macaca fascicularis.
A short description of series [9]: Cardiotoxicity in anesthetized guinea-pig assessed as decrease in arterial blood pressure. The class given is toxicity, Cavia porcellus. Particulars: 0.09 µM, DDE = dose-dependent effect, dose 90 nM.
The nature of series [10]: Cardiotoxicity in anesthetized guinea-pig assessed as QRS widening at 1600 nM. The class given is toxicity, Cavia porcellus. Particulars: 1.6 µM.
A short description of series [11]: AUC in Han Wistar rat at 1000 mg/kg, po administered every other day for 7 days. The format is ADME, organism-based. More on the design: dose 1000 mg/kg, time 7 day, route po. Particulars: in vivo, 168 h.
Series [12] is described as follows: Toxicity in Han Wistar rat assessed as effect on auditory reflex at 250 to 1000 mg/kg, po administered every other day for 7 days. The class given is organism-based. Particulars: in vivo, 168 h, dose 250-1000 mg/kg, time 7 day.
A short description of series [13]: Toxicity in Han Wistar rat assessed as effect on mydriasis at 250 to 1000 mg/kg, po administered every other day for 7 days. The class given is organism-based. Particulars: in vivo, 168 h, dose 250-1000 mg/kg, time 7 day.
Series [14] is described as follows: Toxicity in Han Wistar rat assessed as body weight gain at 250 to 1000 mg/kg, po administered every other day for 7 days. Particulars: in vivo, 168 h, dose 250-1000 mg/kg, time 7 day. The format is organism-based.
A short description of series [15]: Toxicity in Han Wistar rat assessed as auto-fluorescent granule accumulation in retinal epithelium at 250 to 1000 mg/kg, po administered every other day for 7 days. The class given is organism-based. Particulars: in vivo, 168 h, dose 250-1000 mg/kg, time 7 day.
A short description of series [16]: Toxicity in Han Wistar rat assessed as structural changes in retina at 250 to 1000 mg/kg, po administered every other day for 7 days. The format is organism-based. Particulars: in vivo, 168 h, dose 250-1000 mg/kg, time 7 day.
The nature of series [17]: Toxicity in Han Wistar rat assessed as effect on scotopic amplitude at 1000 mg/kg, po administered every other day for 7 days by ERG analysis. Particulars: in vivo, 168 h, time 7 day. The class given is organism-based.
Series [18] can be described thus: Toxicity in Han Wistar rat assessed as effect on implicit times and latency at 1000 mg/kg, po administered every other day for 7 days by ERG analysis. The format is organism-based. Particulars: in vivo, 168 h, time 7 day.
Series [19] can be described thus: Genotoxicity in Han Wistar rat by micronucleus assay. The class given is toxicity.
Series [20] can be described thus: Genotoxicity in Han Wistar rat by ames assay. The class given is toxicity.
The subject of a further series is NIH3T3. Description: Phototoxicity against mouse 3T3 cells by neutral red uptake assay. The format is toxicity, cell-based.
A further series is described as follows: in vivo. Particulars: cynomolgus monkey, blood, po, 10 mg/kg.
A further series has as its target Plasmepsin X (Plasmodium falciparum (isolate 3D7), UniProt Q8IAS0). Briefly: biochemical.
Series [21] relates to Plasmepsin X (Plasmodium falciparum). Description: Binding affinity to Plasmodium falciparum PMX assessed as dissociation constant by SPR analysis.
The nature of series [22]: Solubility of the compound in FeSSIF at pH 5.8. The class given is physicochemical. Particulars: simulated gi fluid.
Series [23] concerns Plasmodium falciparum. Description: Resistance development in asexual blood stage Plasmodium falciparum Dd2-B2 assessed as minimum inoculum of resistance at 3 times IC50 measured on day 30 using at 2 x 10^7 inoculum by SYBR dye based flow cytometry. The class given is functional, organism-based. Particulars: time 30.0 day.
Series [24] can be described thus: AUClast in NSG mouse at 50 mg/kg, po by LC-MS/MS analysis. Particulars: in vivo. The format is ADME, organism-based. Details: time 0 - last, dose 50 mg/kg, route po.
Series [25] can be described thus: Lipophilicity, logD of compound at pH 7.4. The format is physicochemical. Particulars: buffer.
Series [26] in a line: Drug metabolism in human hepatocytes assessed as (S)-6-(2-chloro-3-((6-cyclopropylpyridin-3-yl)amino)phenyl)-2-imino-6-methyl-3-((2S,4S)-2-methyltetrahydro-2H-pyran-4-yl)tetrahydropyrimidin-4(1H)-one metabolite formation. The class given is ADME, cell-based, Hepatocyte.
Series [27] in a line: Drug metabolism in dog hepatocytes assessed as (S)-6-(2-chloro-3-((6-cyclopropylpyridin-3-yl)amino)phenyl)-2-imino-6-methyl-3-((2S,4S)-2-methyltetrahydro-2H-pyran-4-yl)tetrahydropyrimidin-4(1H)-one metabolite formation. The format is ADME, cell-based, Canis lupus familiaris, Hepatocyte.
The nature of series [28]: Drug metabolism in rat hepatocytes assessed as (S)-6-(2-chloro-3-((6-cyclopropylpyridin-3-yl)amino)phenyl)-2-imino-6-methyl-3-((2S,4S)-2-methyltetrahydro-2H-pyran-4-yl)tetrahydropyrimidin-4(1H)-one metabolite formation. The format is ADME, cell-based, Hepatocyte.
The test system of another series is HepG2. Description: Cytotoxicity against human HepG2 cells assessed reduction in cell viability. The format is toxicity, cell-based.
Series [29] concerns the target Voltage-gated inwardly rectifying potassium channel KCNH2 (Homo sapiens, UniProt Q12809). Briefly: Inhibition of hERG cardiac ion channel by patch clamp assay. The format is toxicity. On the technique in general: hERG is a cardiac potassium channel; its block is linked to QT prolongation.

Chain of Voltage-gated inwardly rectifying potassium channel KCNH2 (Q12809 whole entry): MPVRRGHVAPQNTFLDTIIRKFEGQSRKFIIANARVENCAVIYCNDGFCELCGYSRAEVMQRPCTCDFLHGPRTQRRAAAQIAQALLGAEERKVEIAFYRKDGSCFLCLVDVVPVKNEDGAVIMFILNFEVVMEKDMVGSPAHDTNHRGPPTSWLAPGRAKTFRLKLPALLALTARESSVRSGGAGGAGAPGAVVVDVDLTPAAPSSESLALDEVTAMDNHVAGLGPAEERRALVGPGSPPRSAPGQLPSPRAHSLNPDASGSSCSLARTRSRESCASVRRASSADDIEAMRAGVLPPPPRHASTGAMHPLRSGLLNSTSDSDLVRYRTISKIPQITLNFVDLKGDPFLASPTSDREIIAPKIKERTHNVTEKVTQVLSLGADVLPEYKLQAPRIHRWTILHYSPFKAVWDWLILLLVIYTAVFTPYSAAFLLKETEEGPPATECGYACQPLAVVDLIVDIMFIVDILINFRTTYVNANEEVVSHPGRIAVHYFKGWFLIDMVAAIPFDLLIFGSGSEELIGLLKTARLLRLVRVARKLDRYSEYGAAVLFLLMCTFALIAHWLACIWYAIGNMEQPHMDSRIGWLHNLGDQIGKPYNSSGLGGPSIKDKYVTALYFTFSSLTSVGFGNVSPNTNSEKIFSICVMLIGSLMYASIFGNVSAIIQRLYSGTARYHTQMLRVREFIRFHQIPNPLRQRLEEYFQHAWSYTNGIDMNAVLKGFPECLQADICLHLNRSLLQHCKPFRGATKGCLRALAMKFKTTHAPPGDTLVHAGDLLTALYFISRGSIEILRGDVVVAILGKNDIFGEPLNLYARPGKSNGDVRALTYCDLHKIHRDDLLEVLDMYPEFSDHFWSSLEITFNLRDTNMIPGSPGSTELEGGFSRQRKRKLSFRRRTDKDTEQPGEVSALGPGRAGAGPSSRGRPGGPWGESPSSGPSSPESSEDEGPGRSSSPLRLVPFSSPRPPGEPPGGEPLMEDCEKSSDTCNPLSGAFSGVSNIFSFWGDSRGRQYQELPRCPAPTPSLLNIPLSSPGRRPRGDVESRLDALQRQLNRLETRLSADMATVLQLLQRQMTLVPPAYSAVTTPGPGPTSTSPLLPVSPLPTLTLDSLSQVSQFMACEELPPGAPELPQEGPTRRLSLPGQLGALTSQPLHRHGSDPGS
Chain of Plasmepsin X (Q8IAS0 whole entry): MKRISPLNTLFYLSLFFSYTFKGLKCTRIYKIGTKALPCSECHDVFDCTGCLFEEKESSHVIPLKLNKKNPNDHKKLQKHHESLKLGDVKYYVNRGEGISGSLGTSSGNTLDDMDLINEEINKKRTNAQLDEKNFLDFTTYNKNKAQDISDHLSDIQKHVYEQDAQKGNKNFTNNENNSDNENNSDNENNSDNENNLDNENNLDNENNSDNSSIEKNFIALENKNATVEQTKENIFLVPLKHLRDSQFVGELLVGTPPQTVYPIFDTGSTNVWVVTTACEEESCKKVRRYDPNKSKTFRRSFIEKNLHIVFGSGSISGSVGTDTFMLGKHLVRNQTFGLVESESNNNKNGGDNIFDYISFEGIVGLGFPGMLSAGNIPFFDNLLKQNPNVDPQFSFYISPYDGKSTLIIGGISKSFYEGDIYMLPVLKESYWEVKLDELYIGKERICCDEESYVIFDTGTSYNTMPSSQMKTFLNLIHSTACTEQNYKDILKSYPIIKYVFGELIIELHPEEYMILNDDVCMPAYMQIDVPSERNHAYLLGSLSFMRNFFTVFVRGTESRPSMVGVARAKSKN

A word on the pIC50: it is −log10 of the IC50, conventionally taken in molar units. As usually defined, the clearance is the rate of elimination divided by the concentration. The AUC is the area under the concentration-time curve, a measure of exposure. The Tmax is the time at which the peak concentration occurs. By pKd is commonly meant −log10 of the Kd, conventionally taken in molar units. As to `C[C@H]1C[C@@H](N2C(=N)N[C@](C)(c3cccc(NC(=O)c4cccc(C#N)c4)c3Cl)CC2=O)CCO1`, the pIC50 in the series on Plasmodium falciparum [1] was 7.48; with Plasmodium falciparum [2] it was 7.82; in the series with Plasmodium falciparum [3], 7.70; against Plasmepsin X, 8.15. Also, in the series with Plasmodium falciparum [4], the result was Active. The clearance in series [5] worked out at 43.9 mL/min/kg; in [6], 18.9 mL/min/kg. For the same compound, the Vd in series [7] came to 3.07 L/kg. Further, in series [8], the half-life is 246 min. Besides, the Activity result is “Dde” in series [9]; “Non-Toxic” in series [10]; “Non-Toxic” in [12]; “Non-Toxic” in series [13]; “Non-Toxic” in series [14]; “Non-Toxic” in series [15]. In addition, the Activity result (in series [16]; in [17]; in series [18]; in series [19]; in series [20]; with NIH3T3) was “Non-Toxic” each time. In addition, the AUC in series [11] is 2182 µM·h. Besides, the Tmax in the series “in vivo” is 1 h. Further, in [21], the pKd is 8.26.

What is called solubility is the dissolved amount per volume that the medium holds. What is called logD is the decadic logarithm of the distribution of all forms, ionised or not, between an organic phase and buffer at a given pH. `C[C@H]1C[C@@H](N2C(=N)N[C@](C)(c3cccc(Nc4ccc(C5CC5)nc4)c3Cl)CC2=O)CCO1`: the solubility in series [22] is 959 µM (≈ 449 µg/mL). Moreover, the outcome with Plasmodium falciparum [23] was Active. In addition, in series [24], the AUC was 2 10^6nM. The same compound registered a pH-dependent lipophilicity (logD) in series [25] of 2.5. The Drug metabolism result in series [26], in [27] and in [28] was “Metabolite_Detected” throughout. Also, the results for the pIC50 (in the series on HepG2; in series [29]) were 4.80 and 4.85, respectively.
